Like-named read-outs stand apart in the source and are kept apart here.
Legend:
MDA-MB231 cell lines = test: MTT cell viability assay (IC50); format: cell-based; details: Homo sapiens, MDA-MB-231, single dose of treatment, 10^−9 to 10^−4 M, 570 nm absorbance, FIG. 1, read-out: IC50 (half-maximal inhibitory concentration), MTT cell viability
Description: (§1) HCT 116 colon cancer and MDA-MB231 breast cancer cell lines are used in cell culture experiments.
(§2) Cells were treated with high-glucose DMEM medium (Biosera) supplemented with 10% FBS (Gibco) and 1× penicillin/streptomycin (Multicell). The assay was designed to contain 10,000 cells for each well of 24-well cell culture plates before being treated with inhibitors.
(§3) Compound of formula I was dissolved with DMSO as 20 mM stock. 24 hours later, the solution was diluted in DMEM with 10% FBS and final concentration of vehicle DMSO was 0.5% at maximum. Therefore, the vehicle group included 0.5% DMSO concentration in experiments. Intensive cultivation of cells causes a decrease in proliferation capacity.
The MTT cell viability assay was used to detect values of half-maximal inhibitory concentration (IC50). Different concentrations of compound of formula I ranging between 10^−9 to 10^−4 M were tested on MDA-MB231 cell lines with single dose of treatment. 570 nm absorbance values were recorded and IC50 values were calculated by dose response—inhibition curves and nonlinear regression analysis on Graphpad Prism 8 software.

[1] = system: HCT 116 colon cancer and MDA-MB231 breast cancer cell lines; test: MTT cell proliferation assay (time course); format: cell-based; details: for cytotoxicity at 100 µM: read-out: cell viability decrease
Description: as §1, §2, §3
For proliferation inhibition analysis, cells were seeded in 24 well plates at 1×10^4 cells/well cells overnight without drug treatment. During the cell proliferation experiments, we performed five days of treatment in each cell line and repeated the experiments three times to check each experiment. No significant difference in cell viability was observed after the third day. Therefore, cells with different drug concentrations were treated for two days. After 48 hours, MTT was applied to the cells and incubated at 37° C. for 4 hours, formazan was solubilized with DMSO (Sigma-Aldrich, St. Louis, USA) and absorbance was measured at 570 nm.
Molecule concentration was 100 μM, the lower concentrations were not shown. Vehicle represents the groups treated with only %0.5 DMSO and Untreated represents no molecule treated group. Molecule responses were evaluated by cell viability which is obtained by spectrophotometric analysis of cells upon MTT treatment at 12 h, 24 h, 48 h and 72 h. […] Statistical significance in graphs was determined by comparing each treatment group with DMSO control using ANOVA testing and significance is considered as p<0.001 (FIG. 2).

HCT-116 cells = test: Microscopic evaluation of cells (proliferation, apoptotic morphology); format: cell-based; details: FIG. 3
Description: Cells were photographed and observed under microscope for three days.
As a result, cell viability decreased by 40% at the end of the first day and reached 60% at the end of the third day. Any cell proliferation change and apoptotic cell morphology were not observed in the untreated and vehicle groups. Moreover, differences in cell morphology were also observed. […] Upon treatment with the compound of formula I according to present invention with 100 μM concentration, cells having the morphology of apoptotic cells were observed starting from the 3rd hour.

MDM2 protein = MDM2 protein (Homo sapiens, UniProt Q00987); details: versus a natural p53 peptide; cited from earlier work
MDM2 protein, sequence (Q00987 whole entry, species assumed): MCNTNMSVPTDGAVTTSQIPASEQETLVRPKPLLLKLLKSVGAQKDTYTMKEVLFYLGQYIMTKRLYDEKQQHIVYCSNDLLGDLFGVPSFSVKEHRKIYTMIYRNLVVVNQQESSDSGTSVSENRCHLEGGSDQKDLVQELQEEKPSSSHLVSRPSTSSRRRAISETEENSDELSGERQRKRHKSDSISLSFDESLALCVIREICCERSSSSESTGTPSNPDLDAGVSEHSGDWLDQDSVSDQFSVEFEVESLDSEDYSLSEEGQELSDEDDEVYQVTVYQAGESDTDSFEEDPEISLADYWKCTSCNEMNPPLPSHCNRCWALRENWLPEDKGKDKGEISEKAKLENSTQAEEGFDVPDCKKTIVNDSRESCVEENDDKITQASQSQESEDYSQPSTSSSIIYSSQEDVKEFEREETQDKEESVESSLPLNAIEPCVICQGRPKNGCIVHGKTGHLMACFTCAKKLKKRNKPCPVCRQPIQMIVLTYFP

Compound | IC50 (MDA-MB231 cell lines) | cell viability compared to vehicle and untreated groups ([1]; 100 μM, MTT at 12 h, 24 h, 48 h and 72 h, ANOVA, p<0.001, FIG. 2) | cytotoxicity at 100 µM ([1]; end of the first day) | cytotoxicity at 100 µM ([1]; end of the third day) | time from which cells having the morphology of apoptotic cells were observed (HCT-116 cells; 100 μM concentration) | apoptotic activity under microscope (HCT-116 cells; HCT-116) | proliferation under microscope (HCT-116 cells; HCT-116, observed for three days, versus vehicle and untreated) | binding affinity to MDM2 relative to natural p53 peptide (MDM2 protein)
O=C(O)CC(NC(=O)Cc1c[nH]c2ccccc12)c1ccc(F)cc1 (centres unmarked) [compound of formula I] | 77 µM | statistically significant difference | 40% | 60% | 3 hour | clear apoptotic activity from the twelfth hour | reduced proliferation | –
MI-319 | – | – | – | – | – | – | – | 500 fold
